Measurements taken from patent US20030215888A1, “Androgen receptor overexpressing skeletal myoblasts” (Pfizer Inc., priority 2002, published 2003).
Where two headings read alike, the source gives them in different places.

Experiments:
C2C12 cells = conditions: C2C12, 100 nM DHT
Method: (§1) Each cell sample was pelleted by low-speed centrifugation and resuspended in 0.5 ml phosphate buffered saline containing 100 micrograms/ml ribonuclease A and 20 microgram/ml propidium iodide for 30 minutes at room temperature.

C2hAR57 cells = conditions: C2hAR57, 100 nM DHT
Method: as §1

In the case of `C[C@]12CCC(=O)C[C@@H]1CC[C@@H]1[C@@H]2CC[C@]2(C)[C@@H](O)CC[C@@H]12` [DHT, dihydrotestosterone], the “effect on fraction of cells at each stage of the cell cycle” value (C2C12 cells) is reported as “unaffected”, the “Percentage of cells in G2-M” value (C2C12 cells; 24 h) is reported as 15.6 ± 1.2% and the “Percentage of cells in GO-G1” value (C2C12 cells; 24 h) is reported as 40.3 ± 0.8%. For the same compound, the “Percentage of cells in S” value (C2C12 cells; 24 h) was 45.3 ± 1.1%, the “Percentage of cells in G2-M” value (C2C12 cells; 48 h) was 15.8 ± 0.7% and the “Percentage of cells in GO-G1” value (C2C12 cells; 48 h) was 38.0 ± 0.6%. For the same compound, the “Percentage of cells in S” value (C2C12 cells; 48 h) was 46.2 ± 0.7%, the “Percentage of cells in G2-M” value (C2hAR57 cells; 24 h) was 14.3 ± 0.4 % and the “Percentage of cells in GO-G1” value (C2hAR57 cells; 24 h) was 54.5 ± 0.7 %. The “Percentage of cells in S” value (C2hAR57 cells; 24 h) was 31.2 ± 0.6 %, the “Percentage of cells in G2-M” value (C2hAR57 cells; 48 h) was 15.1 ± 1.1 % and the “Percentage of cells in GO-G1” value (C2hAR57 cells; 48 h) was 51.2 ± 2.8 %. For the same compound, the “Percentage of cells in S” value (C2hAR57 cells; 48 h) was 33.7 ± 3.2 %.
